{
  "source": "patent US9493782B2",
  "about": "“Inducible promoter sequences for regulated expression and methods of use” (PIONEER HI-BRED INTERNATIONAL INC, priority 2012, dated 2016)",
  "key": {"[1]": {"tested_on": "ZmCAS1 transcript", "test": "Northern blot of maize anther RNA from CBSU-treated plants, ZmCAS1 probe", "assay_type": "in vivo", "conditions": "FIG. 2", "protocol": "(§1) Wild type maize plants were grown to the meiosis stage of microspore development. Plants were watered with 30 mg 2-CBSU and allowed to develop to the quartet and early vacuolate stage of microspore development. PolyA+ anther RNA was isolated from wild type control and CBSU treated plants and stored. A cDNA library was constructed from mRNAs isolated from CBSU-treated plants, arrayed onto nylon filters and stored. A cDNA subtraction library was generated using the Clontech PCR-Select cDNA Subtraction Kit (#K1804-1) following the manufacturer's instructions to enrich for CBSU-specific transcripts. Using this approach anther PolyA+ mRNA from wild-type plants was used to enrich for transcripts found in the anther PolyA+ mRNA from CBSU treated plants. […]\n(§2) To determine whether the ZmCAS1 cDNA was 1) induced in maize anthers by CBSU-treatment and 2) reduced or absent in tapetum and microspore-ablated maize anthers from CBSU-treated 5126:DAM plants, a 477 bp ZmCAS1c-1 DNA fragment (SEQ ID NO:1), as well as DNA fragments from ZmMS45, Zm5126, ZmActin, and ZmUbiquitin (Cigan et al. 2001. […] MS45 and 5126 transcripts were easily detected in anther RNAs from male-fertile plants but absent in anther RNAs from male-sterile plants (FIG. 2) further supporting the observation that these RNAs are localized to the maize tapetum (Cigan et al. 2001. Sex. Plant Reprod. 14, 135-142)."}, "[2]": {"tested_on": "IN2-2 transcript", "test": "Northern blot of maize anther RNA from CBSU-treated plants, IN2-2 probe", "assay_type": "in vivo", "conditions": "CBSU-treated male-fertile and male-sterile plants; not detectable in untreated controls; FIG. 2", "protocol": "as §1, §2"}, "[3]": {"tested_on": "ZmCAS1 transcript", "test": "Northern blot of maize callus, leaf and anther RNA treated with CBSU, ZmCAS1 probe", "conditions": "CBSU-treated tissues; FIG. 3"}, "[4]": {"tested_on": "1.7 kb ZmCAS1 promoter driving GUS reporter", "test": "GUS staining (X-Gluc) of maize callus events transformed with PHP16975", "assay_type": "cell-based", "conditions": "room temperature, 18 hours, FIG. 4A", "from_the_text": "Agrobacterium-mediated transformation of immature embryos was used to generate integrated copies of PHP16974 (SEQ ID NO:11; ZmCAS1HindIII Pro:GUS/35SPAT) comprising the 1.0 kb ZmCAS1 promoter (SEQ ID NO:9), PHP16975 (SEQ ID NO:12, ZmCAS1BamPro:GUS/35SPAT) comprising the 1.7 kb ZmCAS1 promoter (SEQ ID NO:10) and PHP16972 (SEQ ID NO:13, ZmCAS1HindIII Pro:MS45/35SPAT) comprising the 1.0 kb ZmCAS1 promoter or PHP16973 (SEQ ID NO:14, ZmCAS1BamPro:MS45/35SPAT:) comprising the 1.7 kb ZmCAS1 promoter.\nTo determine whether the 1.7 kb or the 1.0 kb ZmCAS1 promoter from maize could direct induced expression of the GUS reporter, three bialophos-resistant callus events were placed onto maintenance media and maintenance media containing increasing amounts of the safener CBSU-2 for at room temperature for 18 hours, removed and stained with X-Gluc to detect GUS activity."}, "[5]": {"tested_on": "truncated 1.0 kb ZmCAS1 promoter driving GUS reporter", "test": "GUS staining (X-Gluc) of maize callus events transformed with PHP16974", "assay_type": "cell-based", "conditions": "seven PHP16974 callus events, 100 mg/liter CBSU, room temperature; FIG. 4B"}, "[6]": {"tested_on": "1.7 kb ZmCAS1 promoter driving GUS reporter", "test": "GUS expression in leaf punches of maize plants transformed with PHP16975", "assay_type": "in vivo", "conditions": "3 PHP16975 plants, about 5 leaf stage, 2 days after watering with 30 mg 2-CBSU; FIG. 5", "protocol": "Plants were also regenerated from callus events containing PHP16975 and grown in the greenhouse to approximately the 5 leaf stage. At this stage of development, leaf punches from plants regenerated from the 3 bialophos-resistant events shown in FIG. 5 were collected pre- (C) and post-watering (S) with 30 mg of 2-CBSU to examine GUS expression in leaf in response to application of the safener."}, "[7]": {"tested_on": "1.0 kb ZmCAS1 promoter driving MS45", "test": "Northern analysis of MS45 mRNA in ms45/ms45 maize callus transformed with PHP16972", "assay_type": "cell-based", "conditions": "five PHP16972 ms45/ms45 callus events, 100 mg/liter CBSU, room temperature, 18 hours; FIG. 6", "from_the_text": "T-DNA vectors PHP16972 (SEQ ID NO:13, ZmCAS1HindIII Pro: MS45/35S:PAT) and PHP16973 (SEQ ID NO: 14, ZmCAS1 BamPro:MS45/35S:PAT) were used to transform maize callus which was generated to contain a segregating population of MS45/ms45 heterozygous and ms45/ms45 homozygous mutant plants. In order to detect MS45 RNA or protein expression under the control of the 1.0 or 1.7 kb ZmCAS promoter in maize anthers, plants containing a naturally occurring mutation in the maize MS45 gene which results in loss of MS45 RNA and protein were used for these studies. Pollen from MS45/ms45 plants were used to fertilize male-sterile ms45/ms45 plants for the purpose of generating embryos which would be ms45/ms45 as described in Cigan et al 2001. […] Five random bialophos-resistant callus events containing integrated copies of PHP16972 were placed onto maintenance media (FIG. 5, (−)) and maintenance media containing 100 mg/liter safener CBSU-2 (FIG. 5 (+)) at room temperature for 18 hours, removed and PolyA+ RNA prepared and used for RNA analysis as described (Cigan et al. 2001. Sex. Plant Reprod. 14, 135-142) using the ZmMS45 and ZmActin probes for hybridization analysis. […] A very low signal was observed when callus was grown in the absence of CBSU. Actin was used as a control probe to show nearly equivalent RNA levels were present in all samples. […]"}, "[8]": {"tested_on": "1.7 kb ZmCAS1 promoter driving MS45", "test": "Western analysis of MS45 protein in ms45/ms45 maize plants transformed with PHP16973", "assay_type": "in vivo", "conditions": "PHP16973 plants watered with 30 mg CBSU at meiosis stage, collected 2 days later"}, "[9]": {"tested_on": "truncated 1.0 kb ZmCAS1 promoter driving GUS reporter", "test": "GUS staining (X-Gluc) of rice callus events transformed with PHP16974", "assay_type": "cell-based, Oryza sativa cv. Kitaake", "conditions": "four PHP16974 events, 100 mg/liter CBSU, 24 hours; FIG. 9", "from_the_text": "To determine whether the ZmCAS1 promoter could conditionally regulate expression in response to safener treatment or heat treatment in plant species other than maize, Agrobacterium-mediated transformation was used to generate integrated copies of PHP16974 (ZmCAS1HindIII Pro:GUS) comprising the truncated 1.0 kb ZmCAS1 promoter for studies in rice. Scutellum from 10-14 day old germinating seeds (Oryza sativa cv. Kitaake) was used for rice transformation experiment (Toki. 1997, PI Mol. Biol Reporter 15:16-21). Bialophos-resistant callus events containing PHP16974 were selected and screened for their ability to respond to safener application. Four independent bialophos-resistant events were grown on maintenance media or maintenance media containing 100 mg/liter CBSU for 24 hours, removed and stained with X-Gluc. […] PHP16974 bialophos-resistant events were regenerated into plants. Leaf tissue was collected from these plants and used for DNA hybridization analyses to identify single-copy PHP16974 insertions. These plants were allowed to set selfed seed and were used for subsequent studies to monitor GUS expression under the transcriptional control of the ZmCAS1 promoter. Sixteen seed were selected from 2 single-copy PHP16974 events were sterilized, grown on hormone-free media at 28° C. or 37° C. for 48 hours and allowed to germinate. […]"}},
  "data": [
    {"smiles": "NC(=O)NS(=O)(=O)c1ccccc1Cl", "note": "[CBSU, N-(aminocarbonyl)-2-chlorobenzenesulfonamide]", "values": [
      {"measurement": "ZmCAS1 hybridization signal in anther mRNA", "setting": "[1]; male-fertile plants watered with 30 mg 2-CBSU (+, F)", "value": "strong hybridization signals"},
      {"measurement": "ZmCAS1 hybridization signal in anther mRNA", "setting": "[1]; male-sterile 5126:DAM plants, CBSU-treated (+, S)", "value": "reduced ZmCAS1 signal"},
      {"measurement": "IN2-2 hybridization signal in anther mRNA", "setting": "[2]", "value": "strong hybridization signals"},
      {"measurement": "ZmCAS1 hybridization in mRNAs from callus, leaf and anther", "setting": "[3]", "value": "strong hybridization"},
      {"measurement": "GUS expression in callus", "setting": "[4]; 10 mg/l CBSU", "value": "low levels of GUS expression"},
      {"measurement": "GUS expression in callus", "setting": "[4]; 100 mg/l CBSU", "value": "strong GUS expression"},
      {"measurement": "GUS expression in callus", "setting": "[5]", "value": "inducible GUS expression"},
      {"measurement": "GUS expression in leaf punches", "setting": "[6]", "value": "strong GUS expression"},
      {"measurement": "MS45 mRNA hybridization signal in callus", "setting": "[7]", "value": "strong induction"},
      {"measurement": "MS45 protein in leaf extracts", "setting": "[8]; FIG. 7", "value": "increased steady-state levels of the MS45 protein"},
      {"measurement": "MS45 protein in anther extracts", "setting": "[8]; FIG. 8", "value": "Increased MS45 protein"},
      {"measurement": "GUS expression in rice callus", "setting": "[9]", "value": "strong GUS expression"}
    ]}
  ]
}
